“Also recorded” adds a separate entry of the source. Read-outs that look alike come from different tables or passages of the source.
Assays:
[1] = system: B. subtilis HB5600 (dhbA∷spc); assay: Disc diffusion growth promotion assay, HB5600; type: cell-based; details: in the presence of 2,2′-dipyridyl
[2] = system: esterase BesA; assay: BesA-catalyzed hydrolysis of apo siderophores followed by HPLC; type: biochemical, B. cereus ATCC 14579; details: 72 nM enzyme, 64 μM siderophore
[3] = cited from earlier work; for log K3: [LH2]^4-; for log K4: [LH3]^3-; for log K5: [LH4]^2-; for log K6: [LH5]^-; for log K2: [LH]^5-; for log K1: [L]^6-; for Σlog K1-6: sum of the stepwise protonation constants
[4] = cited from earlier work; for log β110: [FeL]^3-; for pM(Fe^III): pH 7.4, 1 μM total iron, 10 μM total ligand
[5] = system: esterase Fes; details: cited from earlier work
[6] = Strong acid hydrolysis followed by HPLC; type: physicochemical; details: 1 mg/mL, 6 M HCl, stirred 12 h (overnight)
[7] = system: B. subtilis HB5625 (feuA∷spc dhbA∷mls); assay: Disc diffusion growth promotion assay, HB5625; type: cell-based; details: in the presence of 2,2′-dipyridyl
[8] = system: esterase BesA; assay: BesA-catalyzed hydrolysis of ferric complexes followed by UV-Vis spectroscopy; type: biochemical, B. cereus ATCC 14579; details: 100 μM substrate, 1 μM enzyme, 75 mM HEPES pH 7.5, UV-Vis over 12 h
[9] = system: E. coli; details: incorporated through FepA; cited from earlier work
[10] = molecular target: substrate-binding protein FeuA (Bacillus subtilis, UniProt P40409); assay: Fluorescence quenching binding assay with FeuA-His6; set-up: species or system B. subtilis 168
[11] = system: esterase Fes; assay: Fes-catalyzed hydrolysis of siderophores; type: biochemical; details: Fes from Shigella flexneri, 64 μM substrates, 72 nM enzymes, HPLC
[12] = system: B. subtilis ATCC 6051; assay: 55Fe-siderophore transport assay; type: cell-based; details: 37 °C, iron-limited medium
[13] = Potentiometric titration, ligand protonation constants; type: physicochemical
[14] = type: physicochemical
[15] = system: B. subtilis ATCC 6051; details: cited from earlier work

Chain of substrate-binding protein FeuA (P40409 21-317): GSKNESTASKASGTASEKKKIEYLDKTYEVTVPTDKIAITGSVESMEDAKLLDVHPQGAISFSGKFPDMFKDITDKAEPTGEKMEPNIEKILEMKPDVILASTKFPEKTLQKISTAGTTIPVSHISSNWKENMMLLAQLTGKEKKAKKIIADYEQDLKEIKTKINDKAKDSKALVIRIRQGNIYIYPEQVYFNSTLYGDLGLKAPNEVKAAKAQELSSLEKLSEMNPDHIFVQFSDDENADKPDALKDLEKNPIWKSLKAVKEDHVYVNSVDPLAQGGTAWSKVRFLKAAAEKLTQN

O=C(N[C@H]1COC(=O)[C@@H](NC(=O)c2cccc(O)c2O)COC(=O)[C@@H](NC(=O)c2cccc(O)c2O)COC1=O)c1cccc(O)c1O [Ent, Enterobactin]
growth promotion of B. subtilis HB5600 (in words) [1]: promoted growth | hydrolysis of the apo siderophore by BesA [2]: hydrolyzed sequentially | log K3 [3]: 12.1 | log K4 [3]: 8.6 | log K5 [3]: 7.5 | log K6 [3]: 6.0 | log K2 [3]: 12.1 | log K1 [3]: 12.1 | Σlog K1-6 [3]: 58.4 | log β110 [4]: 49 | pM(Fe^III) [4]: 34.3 | hydrolysis by Fes [5]: subject to enzymatic sequential hydrolysis | resistance to acid hydrolysis [6]: completely degraded | growth stimulation of B. subtilis HB5625, feuA deleted (in words) [7]: prevented growth stimulation

O=C(N[C@@H]1COC(=O)[C@H](NC(=O)c2cccc([O-])c2[O-])COC(=O)[C@H](NC(=O)c2cccc([O-])c2[O-])COC1=O)c1cccc([O-])c1[O-].[Fe+3] [[Fe^III(D-Ent)]^3-]
reaction of the ferric complex with BesA [8]: No change in the absorption spectra | hydrolysis by Fes [5]: neither apo-D-Ent nor [Fe^III(D-Ent)]^3- are hydrolyzed by Fes | growth promotion of E. coli [9]: does not promote growth | Kd [10]: 10 nM

C[C@H]1OC(=O)[C@@H](NC(=O)CNC(=O)c2cccc([O-])c2[O-])[C@@H](C)OC(=O)[C@@H](NC(=O)CNC(=O)c2cccc([O-])c2[O-])[C@@H](C)OC(=O)[C@H]1NC(=O)CNC(=O)c1cccc([O-])c1[O-].[Fe+3] [[Fe^III(BB)]^3-]
reaction of the ferric complex with BesA [8]: the UV-Vis spectra changed | Kd [10]: 15 nM

O=C(CNC(=O)c1cccc(O)c1O)N[C@@H]1COC(=O)[C@H](NC(=O)CNC(=O)c2cccc(O)c2O)COC(=O)[C@H](NC(=O)CNC(=O)c2cccc(O)c2O)COC1=O [D-SGC, N,N′,N″-Tris[2,3-dihydroxybenzoyl-glycinyl]cyclotri-D-seryl trilactone]
growth promotion of B. subtilis HB5600 (in words) [1]: no significant zone of growth stimulation | hydrolysis of the apo siderophore by BesA [2]: no effect; also recorded: did not affect | hydrolysis by Fes [11]: did not react

O=C(CNC(=O)c1cccc([O-])c1[O-])N[C@H]1COC(=O)[C@@H](NC(=O)CNC(=O)c2cccc([O-])c2[O-])COC(=O)[C@@H](NC(=O)CNC(=O)c2cccc([O-])c2[O-])COC1=O.[Fe+3] [[Fe^III(SGC)]^3-]
iron transport into B. subtilis [12]: transported into B. subtilis at levels similar to that of [Fe^III(BB)]^3- | reaction of the ferric complex with BesA [8]: the UV-Vis spectra changed | Kd [10]: 52 nM

O=C(CNC(=O)c1cccc(O)c1O)N[C@H]1COC(=O)[C@@H](NC(=O)CNC(=O)c2cccc(O)c2O)COC(=O)[C@@H](NC(=O)CNC(=O)c2cccc(O)c2O)COC1=O [SGC, SERglyCAM]
growth promotion of B. subtilis HB5600 (in words) [1]: promoted growth | hydrolysis of the apo siderophore by BesA [2]: hydrolyzed sequentially | log K4 ([13]; [LH3]^3-, 0.1 M KCl, 25 °C): 8.37(3) | log K5 ([13]; [LH4]^2-, 0.1 M KCl, 25 °C): 7.54(2) | log K6 ([13]; [LH5]^-, 0.1 M KCl, 25 °C): 6.68(3) | Σlog K1-6 ([13]; sum of the stepwise protonation constants): 58.89 | growth stimulation of B. subtilis HB5625, feuA deleted (in words) [7]: prevented growth stimulation | log β110 ([14]; [FeL]^3-, competition with EDTA, 0.1 M KCl, 25 °C, pH 5 to 7.5): 44.1(2) | pM(Fe^III) ([14]; pH 7.4, 1 μM total iron, 10 μM total ligand): 29.6

O=C(N[C@@H]1COC(=O)[C@H](NC(=O)c2cccc(O)c2O)COC(=O)[C@H](NC(=O)c2cccc(O)c2O)COC1=O)c1cccc(O)c1O (single isomer, unassigned; ent d) [D-Ent, D-enterobactin]
growth promotion of B. subtilis HB5600 (in words) [1]: no significant zone of growth stimulation | hydrolysis of the apo siderophore by BesA [2]: no effect; also recorded: did not affect | transport properties in B. subtilis [15]: same transport properties as Ent | hydrolysis by Fes [5]: neither apo-D-Ent nor [Fe^III(D-Ent)]^3- are hydrolyzed by Fes

O=C(N[C@H]1COC(=O)[C@@H](NC(=O)c2cccc([O-])c2[O-])COC(=O)[C@@H](NC(=O)c2cccc([O-])c2[O-])COC1=O)c1cccc([O-])c1[O-].[Fe+3] [[Fe^III(Ent)]^3-]
reaction of the ferric complex with BesA [8]: the UV-Vis spectra changed | hydrolysis by Fes [5]: subject to enzymatic sequential hydrolysis | Kd [10]: 19 nM

C[C@H]1OC(=O)[C@@H](NC(=O)CNC(=O)c2cccc(O)c2O)[C@@H](C)OC(=O)[C@@H](NC(=O)CNC(=O)c2cccc(O)c2O)[C@@H](C)OC(=O)[C@H]1NC(=O)CNC(=O)c1cccc(O)c1O [BB, bacillibactin]
growth promotion of B. subtilis HB5600 (in words) [1]: promoted growth | hydrolysis of the apo siderophore by BesA [2]: hydrolyzed sequentially | log K3 [3]: 12.1 | log K4 [3]: 8.43 | log K5 [3]: 7.43 | log K6 [3]: 6.77 | log K2 [3]: 12.1 | log K1 [3]: 12.1 | Σlog K1-6 [3]: 58.93 | log β110 [4]: 47.6 | pM(Fe^III) [4]: 33.1 | hydrolysis by Fes [11]: did not react | resistance to acid hydrolysis [6]: remained essentially intact | growth stimulation of B. subtilis HB5625, feuA deleted (in words) [7]: prevented growth stimulation

Source: publication PMC2782669 (Journal of the American Chemical Society, 2009)
